We go through two compounds from patent US9018216B2, “Solid forms of (R)-2-(5-(2-(3-ethylureido)-6-fluoro-7-(tetrahydrofuran-2-yl)-1H-benzo[d]imidazol-5-yl)pyrimidin-2-yl)propan-2-yl dihydrogen phosphate and salts thereof” (priority 2012, dated 2015).

Data set [1] can be described thus: Oral range finding toxicity and toxicokinetic study in male Cynomolgus monkeys. Format: in vivo, Cynomolgus monkeys (Macaca Fascicularis). The source says:
Cynomolgus monkeys (Macaca Fascicularis) were obtained from Primus Bio-Resources Inc. of PinCourt, Quebec, Canada. Cynomolgus monkeys were chosen because they are a non-rodent species that is commonly used for nonclinical toxicity evaluations.
Eight (2 naive and 6 non-naïve) males were used in the study. The animals were young adults and weighed between 2 to 4 kg at the onset of dosing.
The first day of dosing was designated as Day 1 of the study. The actual volume administered to each animal was calculated and adjusted based on the most recent body weight of each animal.
Cage-side clinical signs (ill health, behavioral changes etc.) were recorded at least once daily during the study.
Body weights were recorded for all animals prior to group assignment and on Days 1 (prior to dosing), 3 and 7 as well as terminally prior to necropsy (fasted).
Electrocardiograms (bipolar limb leads I, II and III, and augmented unipolar leads aVR, aVL and aVF) were obtained for all monkeys once during the pre-treatment period and again on Day 7 (post-dosing).
The tracings were assessed for gross changes indicative of cardiac electrical dysfunction. The potential presence of abnormalities involving heart rate (lead II), sinus and atrioventricular rhythm or conductivity were determined. Heart rate, PR interval, QRS duration, QT and QTc intervals values were measured.
A series of 7 blood samples (approximately 0.5 mL each) were collected from each monkey on Days 1 and 7 at the following time points: predose, 30 minutes and 2, 3, 6, 12 and 24 hours post-dose. For this purpose, each monkey was bled by venipuncture and the samples were collected into tubes containing the anticoagulant, K2EDTA. Tubes were placed on wet ice until ready for processing.
Laboratory investigations (hematology, coagulation, clinical chemistry and urinalysis) were performed on all animals prior to start of treatment and prior to termination on Day 8.
A necropsy with tissue collection was conducted on all animals terminated during the study. The necropsy included examination of:
For all animals, all tissues indicated above were embedded in paraffin, sectioned and stained with hematoxylin and eosin and examined by light microscopy.

Data set [2] can be described thus: Monkey oral pharmacokinetic study. Format: in vivo, cynomolgus monkeys. The settings on record: 0.5% MC, plasma analyte. The source says:
(§1) Plasma concentration vs. time data was subjected to noncompartmental pharmacokinetic (PK) analysis.

Data set [3] is described as follows: Monkey IV pharmacokinetic study. Conditions: Compound W IV 5 mg/kg, D5W, plasma analyte.
Description: Animals had free access to food and water before and after dosing.
Blood samples (approximately 0.25 mL each) were collected via a carotid artery catheter prior to dosing and at 0 (predose), 5 min, 10 min, 0.25, 0.5, 1, 2, 3, 4, 6, 8, 12, 24, 48 hours postdose. Each blood sample was collected into a tube that was kept on wet ice and contained potassium EDTA as the anticoagulant. Plasma was separated and stored at approximately −70° C. until analysis.
Plasma concentration vs. time data were subjected to noncompartmental pharmacokinetic (PK) analysis.
Data set [4] in a line: Rat IV pharmacokinetic study. Conditions: D5W, plasma analyte.
The nature of data set [5]: Rat oral pharmacokinetic study. It counts as in vivo, Sprague Dawley rats. The settings on record: 0.5% MC, plasma analyte.
Source text: as §1

The subject of another data set is M. tuberculosis H37Rv. Conditions: cited from earlier work.
[6] abbreviates: doses up to 200 mg/kg/day, 7 days.

In brackets after ≈: the same amount, converted by molar mass. Where two headings read alike, the source gives them in different places.

For `CCNC(=O)Nc1nc2cc(-c3cnc(C(C)(C)O)nc3)c(F)c([C@H]3CCCO3)c2[nH]1` [Compound 23, 1-ethyl-3-[6-fluoro-5-[2-(1-hydroxy-1-methyl-ethyl)pyrimidin-5-yl]-7-[(2R)-tetrahydrofuran-2-yl]-1H-benzimidazol-2-yl]urea], in data set [1] (setting [6]), the “clinical signs, body weights, electrocardiography, clinical pathology, organ weights” value is “no clinical signs, or changes in body weights, electrocardiography parameters, clinical pathology parameters, or organ weights”. Moreover, in data set [1] (setting [6]), the “macroscopic or microscopic findings” value is “no macroscopic or microscopic findings”. Also, the “no observed effect level (NOEL)” value in data set [1] (male Cynomolgus monkeys, oral gavage once per day for 7 days) is reported as 200 mg/kg/day. The “exposures for different dosage levels” value in data set [1] (male Cynomolgus monkeys, oral gavage, toxicokinetics) is reported as “dose related”. For the same compound, the AUCextrap in data set [2] (Compound W PO 30 mg/kg) is 24800 ng·h/mL; in data set [2] (Compound W PO 100 mg/kg) it was 76900 ng·h/mL; in data set [2] (Compound W PO 300 mg/kg), 155000 ng·h/mL; in data set [3], 3810 ng·h/mL; in data set [4] (Compound W IV 1 mg/kg) it was 310 ng·h/mL; in data set [4] (Compound W IV 5 mg/kg), 3060 ng·h/mL. Moreover, the AUCextrap in data set [5] (Compound W oral 3 mg/kg) was determined as 314 ng·h/mL; in data set [5] (Compound W oral 30 mg/kg) it was 22600 ng·h/mL; in data set [5] (Compound W oral 100 mg/kg) it was 77400 ng·h/mL. Also, the results for the Cl_obs in data set [4] (Compound W IV 1 mg/kg) and in data set [4] (Compound W IV 5 mg/kg) were 54.9 mL/min/kg and 27.3 mL/min/kg, respectively. Moreover, the Vss_obs in data set [4] (Compound W IV 1 mg/kg) was 3.8 L/kg; in data set [4] (Compound W IV 5 mg/kg), 4.08 L/kg. Besides, the t1/2 in data set [4] (Compound W IV 1 mg/kg) was found to be 1.8 h; in data set [4] (Compound W IV 5 mg/kg) it was 3.6 h.

As to `NC(=O)c1cnccn1` [Pyrazinamide], the MIC with M. tuberculosis H37Rv (normal pH) was 250 µg/mL (≈ 2030 µM); in the data set with M. tuberculosis H37Rv (pH 6.0), 50 µg/mL (≈ 406 µM).
